Experimental data reported in patent US6737383B1, “Herbicidal oxadiazolidines” (priority 1999, dated 2004).

Columns and labels:
[1] = system: crabgrass; assay: Test B pre/postemergence crabgrass; type: in vivo, Digitaria sanguinalis
Outline: (§1)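 Response is a visual 0-to-10 score relative to untreated plants, where 0 means no effect and 10 means complete control, taken twelve to sixteen days after application. Treatments went onto soil at planting and onto foliage of 1- to 4-leaf plants, using a surfactant-containing non-phytotoxic solvent.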

[2] = system: velvetleaf; assay: Test B pre/postemergence velvetleaf; type: in vivo, Abutilon theophrasti
Outline: as §1

[3] = system: giant foxtail; assay: Test B pre/postemergence giant foxtail; type: in vivo, Setaria faberii
Outline: as §1

[4] = system: soybean; assay: Test B pre/postemergence soybean; type: in vivo, Glycine max
Outline: as §1

[5] = system: purple nutsedge; assay: Test B pre/postemergence purple nutsedge; type: in vivo, Cyperus rotundus; conditions: Postemergence
Outline: as §1

[6] = system: duck salad; assay: Test B flood test duck salad; type: in vivo, Heteranthera limosa
Outline: (§2)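 Each value is a visual injury score relative to controls, with 10 meaning complete control and 0 no effect. Evaluation took place twelve to sixteen days after the 2-leaf-stage plants were treated and kept in the greenhouse.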

[7] = system: rape; assay: Test B pre/postemergence rape; type: in vivo, Brassica napus
Outline: as §1

[8] = system: smallflower flatsedge; assay: Test B flood test smallflower flatsedge; type: in vivo, Cyperus difformis
Outline: as §2

[9] = system: pigweed; assay: Test B pre/postemergence pigweed; type: in vivo, Amaranthus retroflexus
Outline: as §1

[10] = system: morningglory; assay: Test B pre/postemergence morningglory; type: in vivo, Ipomoea hederacea
Outline: as §1

[11] = system: corn; assay: Test B pre/postemergence corn; type: in vivo, Zea mays
Outline: as §1

[12] = system: wheat; assay: Test B pre/postemergence wheat; type: in vivo, Triticum aestivum
Outline: as §1

[13] = system: bedstraw; assay: Test B pre/postemergence bedstraw; type: in vivo, Galium aparine
Outline: as §1

[14] = system: rice; assay: Test B flood test rice; type: in vivo, Oryza sativa
Outline: as §2

[15] = system: cocklebur; assay: Test B pre/postemergence cocklebur; type: in vivo, Xanthium strumarium
Outline: as §1

[16] = system: wild oat; assay: Test B pre/postemergence wild oat; type: in vivo, Avena fatua
Outline: as §1

[17] = Postemergence, Rate 250 g/ha, scale 0 to 10, 0 no effect, 10 complete control
[18] = Postemergence, Rate 1000 g/ha, scale 0 to 10 (0 no effect, 10 complete control)
[19] = Preemergence, Rate 125 g/ha, scale 0 to 10 (0 no effect, 10 complete control)
[20] = Preemergence, Rate 250 g/ha, scale of 0 to 10 where 0 is no effect and 10 is complete control
[21] = Preemergence, Rate 500 g/ha, scale 0 (no effect) to 10 (complete control)
[22] = Rate 125 g/ha, Postemergence, scale 0 to 10, 0 no effect, 10 complete control
[23] = Rate 500 g/ha, Postemergence, 0 to 10 scale (0 no effect, 10 complete control)
[24] = Rate 1000 g/ha, Preemergence, scale 0 to 10 (0 no effect, 10 complete control)
[25] = Rate 125 g/ha, Postemergence section (flood test species), scale 0 to 10, 0 no effect, 10 complete control
[26] = Rate 500 g/ha, Postemergence section of Table B, 0 to 10 scale (0 no effect, 10 complete control)
[27] = flood test, listed under Postemergence, Rate 250 g/ha, scale 0 to 10, 0 no effect, 10 complete control

## CCN(CC)C(=O)n1oc(=O)n(-c2ccc(F)cc2)c1=O [Compound 3]
[1]; [17]
  Crabgrass plant response rating: 0
[1]; [18]
  Crabgrass plant response rating: 7
[1]; [19]
  Plant response rating, Crabgrass: 0
[1]; [20]
  Plant response rating, Crabgrass: 0
[1]; [21]
  Crabgrass plant response rating: 0
[1]; [22]
  Crabgrass plant response rating: 0
[1]; [23]
  Crabgrass plant response rating: 6
[1]; [24]
  Plant response rating, Crabgrass: 2
[2]; [17]
  Velvetleaf plant response rating: 0
[2]; [18]
  Velvetleaf plant response rating: 0
[2]; [19]
  Plant response rating, Velvetleaf: 0
[2]; [20]
  Plant response rating, Velvetleaf: 0
[2]; [21]
  Velvetleaf plant response rating: 0
[2]; [22]
  Velvetleaf plant response rating: 0
[2]; [24]
  Plant response rating, Velvetleaf: 0
[3]; [17]
  Giant foxtail plant response rating: 3
[3]; [18]
  Giant foxtail plant response rating: 8
[3]; [19]
  Plant response rating, Giant foxtail: 0
[3]; [20]
  Plant response rating, Giant foxtail: 1
[3]; [21]
  Giant foxtail plant response rating: 8
[3]; [22]
  Giant foxtail plant response rating: 0
[3]; [23]
  Giant foxtail plant response rating: 7
[3]; [24]
  Plant response rating, Giant foxtail: 10
[4]; [17]
  Soybean plant response rating: 1
[4]; [18]
  Soybean plant response rating: 2
[4]; [19]
  Plant response rating, Soybean: 0
[4]; [20]
  Plant response rating, Soybean: 0
[4]; [21]
  Soybean plant response rating: 0
[4]; [22]
  Soybean plant response rating: 0
[4]; [24]
  Plant response rating, Soybean: 0
[5]; Rate 250 g/ha, scale 0 to 10, 0 no effect, 10 complete control
  Nutsedge plant response rating: 0
[5]; Rate 1000 g/ha, scale 0 to 10 (0 no effect, 10 complete control)
  Nutsedge plant response rating: 0
[5]; Rate 125 g/ha, scale 0 to 10, 0 no effect, 10 complete control
  Nutsedge plant response rating: 0
[5]; Rate 500 g/ha, 0 to 10 scale (0 no effect, 10 complete control)
  Nutsedge plant response rating: 0
[6]; [18]
  Ducksalad plant response rating: 0
[6]; [25]
  Ducksalad plant response rating: 0
[6]; [26]
  Ducksalad plant response rating: 0
[6]; [27]
  Ducksalad plant response rating: 0
[7]; [17]
  Rape plant response rating: 0
[7]; [18]
  Rape plant response rating: 0
[7]; [19]
  Plant response rating, Rape: 0
[7]; [20]
  Plant response rating, Rape: 0
[7]; [21]
  Rape plant response rating: 0
[7]; [22]
  Rape plant response rating: 0
[7]; [23]
  Rape plant response rating: 0
[7]; [24]
  Plant response rating, Rape: 0
[8]; [18]
  S. Flatsedge plant response rating: 0
[8]; [25]
  S. Flatsedge plant response rating: 0
[8]; [27]
  S. Flatsedge plant response rating: 0
[9]; [17]
  Redroot pigweed plant response rating: 0
[9]; [18]
  Redroot pigweed plant response rating: 0
[9]; [19]
  Plant response rating, Redroot pigweed: 0
[9]; [20]
  Plant response rating, Redroot pigweed: 0
[9]; [21]
  Redroot pigweed plant response rating: 0
[9]; [22]
  Redroot pigweed plant response rating: 0
[9]; [23]
  Redroot pigweed plant response rating: 0
[9]; [24]
  Plant response rating, Redroot pigweed: 0
[10]; [17]
  Morningglory plant response rating: 0
[10]; [18]
  Morningglory plant response rating: 0
[10]; [19]
  Plant response rating, Morningglory: 0
[10]; [20]
  Plant response rating, Morningglory: 0
[10]; [21]
  Morningglory plant response rating: 0
[10]; [22]
  Morningglory plant response rating: 0
[10]; [23]
  Morningglory plant response rating: 0
[10]; [24]
  Plant response rating, Morningglory: 0
[11]; [17]
  Corn plant response rating: 0
[11]; [18]
  Corn plant response rating: 0
[11]; [19]
  Plant response rating, Corn: 0
[11]; [20]
  Plant response rating, Corn: 0
[11]; [21]
  Corn plant response rating: 0
[11]; [22]
  Corn plant response rating: 0
[11]; [23]
  Corn plant response rating: 0
[11]; [24]
  Plant response rating, Corn: 0
[12]; [17]
  Wheat plant response rating: 0
[12]; [18]
  Wheat plant response rating: 0
[12]; [19]
  Plant response rating, Wheat: 0
[12]; [20]
  Plant response rating, Wheat: 0
[12]; [21]
  Wheat plant response rating: 0
[12]; [22]
  Wheat plant response rating: 0
[12]; [24]
  Plant response rating, Wheat: 0
[13]; [17]
  Bedstraw plant response rating: 0
[13]; [18]
  Bedstraw plant response rating: 0
[13]; [19]
  Plant response rating, Bedstraw: 0
[13]; [20]
  Plant response rating, Bedstraw: 0
[13]; [21]
  Bedstraw plant response rating: 0
[13]; [22]
  Bedstraw plant response rating: 0
[13]; [23]
  Bedstraw plant response rating: 0
[13]; [24]
  Plant response rating, Bedstraw: 0
[14]; [18]
  Rice plant response rating: 0
[14]; [25]
  Rice plant response rating: 0
[14]; [26]
  Rice plant response rating: 0
[14]; [27]
  Rice plant response rating: 0
[15]; [17]
  Cocklebur plant response rating: 0
[15]; [18]
  Cocklebur plant response rating: 2
[15]; [19]
  Plant response rating, Cocklebur: 0
[15]; [20]
  Plant response rating, Cocklebur: 0
[15]; [21]
  Cocklebur plant response rating: 0
[15]; [22]
  Cocklebur plant response rating: 0
[15]; [23]
  Cocklebur plant response rating: 0
[15]; [24]
  Plant response rating, Cocklebur: 0
[16]; [17]
  Wild oats plant response rating: 0
[16]; [18]
  Wild oats plant response rating: 0
[16]; [19]
  Plant response rating, Wild oats: 0
[16]; [20]
  Plant response rating, Wild oats: 0
[16]; [21]
  Wild oats plant response rating: 0
[16]; [22]
  Wild oats plant response rating: 0
[16]; [24]
  Plant response rating, Wild oats: 0
